Measured values reported in patent US20230085307A1, “PYRIDAZINONE COMPOUND AND HERBICIDE” (NISSAN CHEMICAL CORPORATION, priority 2019, published 2023).

What was measured:
Japanese bulrush [1] = experiment: Test Example 2: herbicidal activity, application during weed generation under submerged conditions (Table 17, symbol B); assay type: in vivo, Japanese bulrush (Schoenoplectus juncoides); settings: AAH 320 g/ha; application during weed generation, submerged conditions
How it was run: (§1)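 Steps: fill Wagner pots with alluvial soil; add water to give 4 cm depth; sow the species mixed; grow under glass at 25–30° C.; at 1–2 leaves apply water-diluted emulsion formulation to the water surface at a fixed herbicide amount; score after 3 weeks.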

oval-leafed pondweed [2] = experiment: Test Example 2: herbicidal activity, application during weed generation under submerged conditions (Table 17, symbol C); assay type: in vivo, oval-leafed pondweed (Monochoria vaginalis); settings: AAH 320 g/ha; application during weed generation, submerged conditions
How it was run: as §1

lambsquarters = experiment: Test Example 5: herbicidal effect by foliage application, plastic box (Table 20, symbol O); assay type: in vivo, lambsquarters (Chenopodium album)
How it was run: (§2)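 Plants were sown into sterilized diluvial soil under about 1.5 cm cover and kept in a greenhouse at 25° C. to 30° C. Fourteen days on, foliage received an even spray of the diluted emulsion. Herbicidal or crop effect was judged three weeks afterwards.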

windgrass = experiment: Test Example 5: herbicidal effect by foliage application, plastic box (Table 20, symbol L); assay type: in vivo, windgrass (Apera spica-venti)
How it was run: as §2

persian speedwell = experiment: Test Example 5: herbicidal effect by foliage application, plastic box (Table 20, symbol R); assay type: in vivo, Persian speedwell (Veronica persica)
How it was run: as §2

velvetleaf = experiment: Test Example 5: herbicidal effect by foliage application, plastic box (Table 20, symbol M); assay type: in vivo, velvetleaf (Abutilon theophrasti)
How it was run: as §2

Italian ryegrass = experiment: Test Example 5: herbicidal effect by foliage application, plastic box (Table 20, symbol K); assay type: in vivo, Italian ryegrass (Lolium multiflorum)
How it was run: as §2

barnyard grass [3] = experiment: Test Example 5: herbicidal effect by foliage application, plastic box (Table 20, symbol H); assay type: in vivo, barnyard grass (Echinochloa crus-galli)
How it was run: as §2

oval-leafed pondweed [4] = experiment: Test Example 1: herbicidal activity, application before weed generation under submerged conditions (Table 16, symbol C); assay type: in vivo, oval-leafed pondweed (Monochoria vaginalis); settings: amount of applied herbicide 320 g/ha
How it was run: (§3)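 Alluvial soil was flooded to 4 cm depth, weed seeds were sown mixed and 2.5-leaf rice seedlings were transplanted. On sowing day, the compound's emulsion, diluted in water to a set dose, was applied to the water surface. Plants grew at 25–30 °C and were scored 0–5 after three weeks.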

late watergrass [5] = experiment: Test Example 2: herbicidal activity, application during weed generation under submerged conditions (Table 17, symbol A); assay type: in vivo, late watergrass (Echinochloa oryzicola); settings: AAH 320 g/ha; application during weed generation, submerged conditions
How it was run: as §1

barnyard grass [6] = experiment: Test Example 3: herbicidal effect by foliage application, Wagner pot (Table 18, symbol H); assay type: in vivo, barnyard grass (Echinochloa crus-galli); settings: for herbicidal effect on barnyard grass (H): 320 g/ha
How it was run: (§4)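 Plants were sown in alluvial soil held under 0.1–0.5 cm standing water and grown 14 days in a greenhouse at 25–30 °C. An emulsifiable formulation, water-diluted to the set dose, was then sprayed onto the foliage, and effects were scored three weeks later using previously defined criteria.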

Chinese sprangletop = experiment: Test Example 3: herbicidal effect by foliage application, Wagner pot (Table 18, symbol D); assay type: in vivo, chinese sprangletop (Leptochloa chinensis); settings: for herbicidal effect on Chinese sprangletop (D): 320 g/ha
How it was run: as §4

blackgrass = experiment: Test Example 5: herbicidal effect by foliage application, plastic box (Table 20, symbol J); assay type: in vivo, blackgrass (Alopecurus myosuroides)
How it was run: as §2

wild oat = experiment: Test Example 5: herbicidal effect by foliage application, plastic box (Table 20, symbol I); assay type: in vivo, wild oat (Avena fatua)
How it was run: as §2

green foxtail = experiment: Test Example 5: herbicidal effect by foliage application, plastic box (Table 20, symbol G); assay type: in vivo, green foxtail (Setaria viridis)
How it was run: as §2

southern crabgrass = experiment: Test Example 5: herbicidal effect by foliage application, plastic box (Table 20, symbol F); assay type: in vivo, southern crabgrass (Digitaria ciliaris)
How it was run: as §2

rice flat sedge = experiment: Test Example 3: herbicidal effect by foliage application, Wagner pot (Table 18, symbol E); assay type: in vivo, rice flat sedge (Cyperus iria); settings: for herbicidal effect on rice flat sedge (E): 320 g/ha
How it was run: as §4

chickweed = experiment: Test Example 5: herbicidal effect by foliage application, plastic box (Table 20, symbol P); assay type: in vivo, common chickweed (Stellaria media)
How it was run: as §2

late watergrass [7] = experiment: Test Example 1: herbicidal activity, application before weed generation under submerged conditions (Table 16, symbol A); assay type: in vivo, late watergrass (Echinochloa oryzicola); settings: amount of applied herbicide 320 g/ha
How it was run: as §3

redroot pigweed = experiment: Test Example 5: herbicidal effect by foliage application, plastic box (Table 20, symbol N); assay type: in vivo, redroot pigweed (Amaranthus retroflexus)
How it was run: as §2

Japanese bulrush [8] = experiment: Test Example 1: herbicidal activity, application before weed generation under submerged conditions (Table 16, symbol B); assay type: in vivo, Japanese bulrush (Schoenoplectus juncoides); settings: amount of applied herbicide 320 g/ha
How it was run: as §3

[9] = foliage application, 320 g/ha, three weeks after application
[10] = amount of applied herbicide 320 g/ha
[11] = 320 g/ha, foliage application after 14-day growth, evaluated three weeks after application
[12] = amount of applied herbicide 320 g/ha, foliage application after 14-day growth, evaluated three weeks after application

## CCCOc1ccc(-c2sc3ccc(F)cc3c2-c2c(O)c(CC)nn(C)c2=O)cc1 [2-418]
Japanese bulrush [1]
  herbicidal effect rating, B: Japanese bulrush: 3 (Herbicidal rate of 40% or more and less than 70%)
oval-leafed pondweed [2]
  herbicidal effect rating, C: oval-leafed pondweed: 0 (Herbicidal rate of 5% or less (almost no effect))
lambsquarters; [9]
  O: lambsquarters, herbicidal effect grade: 5 (Herbicidal rate of 90% or more (almost completely withered))
windgrass; [9]
  L: windgrass, herbicidal effect grade: 4 (Herbicidal rate of 70% or more and less than 90%)
Persian speedwell; [9]
  R: persian speedwell, herbicidal effect grade: 5 (Herbicidal rate of 90% or more (almost completely withered))
velvetleaf; [9]
  M: velvetleaf, herbicidal effect grade: 5 (Herbicidal rate of 90% or more (almost completely withered))
Italian ryegrass; [9]
  K: Italian ryegrass, herbicidal effect grade: 4 (Herbicidal rate of 70% or more and less than 90%)
Barnyard grass [3]; [9]
  H: barnyard grass, herbicidal effect grade: 4 (Herbicidal rate of 70% or more and less than 90%)
oval-leafed pondweed [4]
  Herbicidal effect, C: oval-leafed pondweed: 2 (Herbicidal rate of 20% or more and less than 40%)
Late watergrass [5]
  herbicidal effect rating, A: late watergrass: 2 (Herbicidal rate of 20% or more and less than 40%)
Barnyard grass [6]; [10]
  herbicidal effect on H: barnyard grass: 5 (Herbicidal rate of 90% or more (almost completely withered))
Chinese sprangletop; [10]
  herbicidal effect on D: Chinese sprangletop: 3 (Herbicidal rate of 40% or more and less than 70%)
blackgrass; [9]
  J: blackgrass, herbicidal effect grade: 4 (Herbicidal rate of 70% or more and less than 90%)
Wild oat; [9]
  I: wild oat, herbicidal effect grade: 0 (Herbicidal rate of 5% or less (almost no effect))
Green foxtail; [9]
  G: green foxtail, herbicidal effect grade: 3 (Herbicidal rate of 40% or more and less than 70%)
Southern crabgrass; [9]
  F: southern crabgrass, herbicidal effect grade: 2 (Herbicidal rate of 20% or more and less than 40%)
Rice flat sedge; [10]
  herbicidal effect on E: rice flat sedge: 5 (Herbicidal rate of 90% or more (almost completely withered))
chickweed; [9]
  P: chickweed, herbicidal effect grade: 5 (Herbicidal rate of 90% or more (almost completely withered))
Late watergrass [7]
  Herbicidal effect, A: late watergrass: 4 (Herbicidal rate of 70% or more and less than 90%)
Redroot pigweed; [9]
  N: redroot pigweed, herbicidal effect grade: 5 (Herbicidal rate of 90% or more (almost completely withered))
Japanese bulrush [8]
  Herbicidal effect, B: Japanese bulrush: 4 (Herbicidal rate of 70% or more and less than 90%)

## COc1ccc2c(-c3c(OC(=O)C(C)c4ccccc4)c(C)nn(C)c3=O)c(-c3ccccc3OC)sc2c1 (stereo not drawn) [3-157]
Japanese bulrush [1]
  herbicidal effect rating, B: Japanese bulrush: 3 (Herbicidal rate of 40% or more and less than 70%)
oval-leafed pondweed [2]
  herbicidal effect rating, C: oval-leafed pondweed: 4 (Herbicidal rate of 70% or more and less than 90%)
lambsquarters; [11]
  herbicidal effect on O: lambsquarters (evaluation grade 0-5): 4 (Herbicidal rate of 70% or more and less than 90%)
windgrass; [11]
  herbicidal effect on L: windgrass (evaluation grade 0-5): 5 (Herbicidal rate of 90% or more (almost completely withered))
Persian speedwell; [11]
  herbicidal effect on R: persian speedwell (evaluation grade 0-5): 4 (Herbicidal rate of 70% or more and less than 90%)
velvetleaf; [11]
  herbicidal effect on M: velvetleaf (evaluation grade 0-5): 5 (Herbicidal rate of 90% or more (almost completely withered))
Italian ryegrass; [11]
  herbicidal effect on K: Italian ryegrass (evaluation grade 0-5): 3 (Herbicidal rate of 40% or more and less than 70%)
Barnyard grass [3]; [11]
  herbicidal effect on H: barnyard grass (evaluation grade 0-5): 5 (Herbicidal rate of 90% or more (almost completely withered))
oval-leafed pondweed [4]
  Herbicidal effect, C: oval-leafed pondweed: 3 (Herbicidal rate of 40% or more and less than 70%)
Late watergrass [5]
  herbicidal effect rating, A: late watergrass: 4 (Herbicidal rate of 70% or more and less than 90%)
Barnyard grass [6]
  herbicidal effect on barnyard grass (H): 5 (Herbicidal rate of 90% or more (almost completely withered))
Chinese sprangletop
  herbicidal effect on Chinese sprangletop (D): 3 (Herbicidal rate of 40% or more and less than 70%)
blackgrass; [11]
  herbicidal effect on J: blackgrass (evaluation grade 0-5): 4 (Herbicidal rate of 70% or more and less than 90%)
Wild oat; [11]
  herbicidal effect on I: wild oat (evaluation grade 0-5): 3 (Herbicidal rate of 40% or more and less than 70%)
Green foxtail; [11]
  herbicidal effect on G: green foxtail (evaluation grade 0-5): 4 (Herbicidal rate of 70% or more and less than 90%)
Southern crabgrass; [11]
  herbicidal effect on F: southern crabgrass (evaluation grade 0-5): 4 (Herbicidal rate of 70% or more and less than 90%)
Rice flat sedge
  herbicidal effect on rice flat sedge (E): 3 (Herbicidal rate of 40% or more and less than 70%)
chickweed; [11]
  herbicidal effect on P: chickweed (evaluation grade 0-5): 4 (Herbicidal rate of 70% or more and less than 90%)
Late watergrass [7]
  Herbicidal effect, A: late watergrass: 5 (Herbicidal rate of 90% or more (almost completely withered))
Redroot pigweed; [11]
  herbicidal effect on N: redroot pigweed (evaluation grade 0-5): 4 (Herbicidal rate of 70% or more and less than 90%)
Japanese bulrush [8]
  Herbicidal effect, B: Japanese bulrush: 3 (Herbicidal rate of 40% or more and less than 70%)

## CCCC(=O)Oc1c(C)nn(C)c(=O)c1-c1c(-c2ccc(C#N)cc2)sc2cc(Cl)c(Cl)cc12 [5-050]
Japanese bulrush [1]
  herbicidal effect rating, B: Japanese bulrush: 2 (Herbicidal rate of 20% or more and less than 40%)
oval-leafed pondweed [2]
  herbicidal effect rating, C: oval-leafed pondweed: 0 (Herbicidal rate of 5% or less (almost no effect))
lambsquarters; [12]
  Herbicidal effect by foliage application, O: lambsquarters: 0 (Herbicidal rate of 5% or less (almost no effect))
windgrass; [12]
  Herbicidal effect by foliage application, L: windgrass: 0 (Herbicidal rate of 5% or less (almost no effect))
Persian speedwell; [12]
  Herbicidal effect by foliage application, R: persian speedwell: 3 (Herbicidal rate of 40% or more and less than 70%)
velvetleaf; [12]
  Herbicidal effect by foliage application, M: velvetleaf: 0 (Herbicidal rate of 5% or less (almost no effect))
Italian ryegrass; [12]
  Herbicidal effect by foliage application, K: Italian ryegrass: 0 (Herbicidal rate of 5% or less (almost no effect))
Barnyard grass [3]; [12]
  Herbicidal effect by foliage application, H: barnyard grass: 0 (Herbicidal rate of 5% or less (almost no effect))
oval-leafed pondweed [4]
  Herbicidal effect, C: oval-leafed pondweed: 0 (Herbicidal rate of 5% or less (almost no effect))
Late watergrass [5]
  herbicidal effect rating, A: late watergrass: 0 (Herbicidal rate of 5% or less (almost no effect))
Barnyard grass [6]
  herbicidal effect on barnyard grass (H): 2 (Herbicidal rate of 20% or more and less than 40%)
Chinese sprangletop
  herbicidal effect on Chinese sprangletop (D): 4 (Herbicidal rate of 70% or more and less than 90%)
blackgrass; [12]
  Herbicidal effect by foliage application, J: blackgrass: 0 (Herbicidal rate of 5% or less (almost no effect))
Wild oat; [12]
  Herbicidal effect by foliage application, I: wild oat: 0 (Herbicidal rate of 5% or less (almost no effect))
Green foxtail; [12]
  Herbicidal effect by foliage application, G: green foxtail: 0 (Herbicidal rate of 5% or less (almost no effect))
Southern crabgrass; [12]
  Herbicidal effect by foliage application, F: southern crabgrass: 0 (Herbicidal rate of 5% or less (almost no effect))
Rice flat sedge
  herbicidal effect on rice flat sedge (E): 0 (Herbicidal rate of 5% or less (almost no effect))
chickweed; [12]
  Herbicidal effect by foliage application, P: chickweed: 3 (Herbicidal rate of 40% or more and less than 70%)
Late watergrass [7]
  Herbicidal effect, A: late watergrass: 3 (Herbicidal rate of 40% or more and less than 70%)
Redroot pigweed; [12]
  Herbicidal effect by foliage application, N: redroot pigweed: 0 (Herbicidal rate of 5% or less (almost no effect))
Japanese bulrush [8]
  Herbicidal effect, B: Japanese bulrush: 0 (Herbicidal rate of 5% or less (almost no effect))
